# Where two headings read alike, the source gives them in different places.
# Tests used:
# E. coli Juhl [1] = test: MIC in Nutrient Broth (Table III); type: cell-based; details: Escherichia coli; E. coli Juhl (10^-4)
# Source text: (§1) Organism in Nutrient Broth
# (§2) **Dilution of overnight broth culture
# K. pneumoniae [2] = test: MIC in Nutrient Broth (Table III); type: cell-based; details: Klebsiella pneumoniae
# Source text: as §1, §2
# Ps. aeruginosa [3] = test: MIC in Nutrient Broth (Table III); type: cell-based; details: Pseudomonas aeruginosa
# Source text: as §1, §2
# S. aureus BX1633 [4] = test: MIC in Nutrient Broth (Table III); type: cell-based; details: Staphylococcus aureus
# Source text: as §1, §2
# S. aureus [5] = test: MIC in Nutrient Broth (Table III); type: cell-based; details: Staphylococcus aureus; S. aureus+50% serum (10^-4)
# Source text: as §1, §2
# Pr. mirabilis [6] = test: MIC in Nutrient Broth (Table III); type: cell-based; details: Proteus mirabilis; Pr. mirabilis (10^-4)
# Source text: as §1, §2
# Pr. morganii [7] = test: MIC in Nutrient Broth (Table III); type: cell-based; details: Morganella morganii
# Source text: as §1, §2
# S. aureus Meth.-Res. = test: MIC in Nutrient Broth (Table III); type: cell-based; details: Staphylococcus aureus
# Source text: as §1, §2
# Sal. enteritidis [8] = test: MIC in Nutrient Broth (Table III); type: cell-based; details: Salmonella enterica; Sal. enteritidis (10^-4)
# Source text: as §1, §2
# Ent. cloacae = test: MIC in Nutrient Broth (Table III); type: cell-based; details: Enterobacter cloacae, Ent. cloacae (10^-4)
# Source text: as §1, §2
# S. aureus Smith [9] = test: MIC in Nutrient Broth (Table III); type: cell-based; details: Staphylococcus aureus, S. aureus Smith (10^-4)
# Source text: as §1, §2
# Ser. marcescens [10] = test: MIC in Nutrient Broth (Table III); type: cell-based; details: Serratia marcescens; Ser. marcescens (10^-4)
# Source text: as §1, §2
# E. coli [11] = test: MIC in Nutrient Broth (Table III); type: cell-based; details: Escherichia coli; E. coli (10^-4)
# Source text: as §1, §2
# Str. pyogenes [12] = test: MIC in Nutrient Broth (Table III); type: cell-based; details: Streptococcus pyogenes, 10^-3 dilution of overnight broth culture, 45% AAB, 5% serum, 50% broth
# Source text: as §1
# (§3) *45% AAB 5% serum 50% broth listed above,
# as §2
# Str. pneumoniae = test: MIC in Nutrient Broth (Table III); type: cell-based; details: Streptococcus pneumoniae, 10^-3 dilution of overnight broth culture, 45% AAB, 5% serum, 50% broth
# Source text: as §1, §3, §2
# D. pneumoniae = test: MIC against various organisms (Table I); type: cell-based; details: Streptococcus pneumoniae; D. pneumoniae + 5% serum; read-out: minimum inhibitory concentration
# [13] = in vivo
# Description: (§4) Only the latter are biologically active per se. Also, both original ester and parent penicillin were measured.
# K. pneumoniae [14] = test: MIC against various organisms (Table I); type: cell-based; details: Klebsiella pneumoniae, K. pneumoniae, read-out: minimum inhibitory concentration
# S. aureus BX1633 [15] = test: MIC against various organisms (Table I); type: cell-based; details: Staphylococcus aureus, read-out: minimum inhibitory concentration
# Ps. aeruginosa [16] = test: MIC against various organisms (Table I); type: cell-based; details: Pseudomonas aeruginosa; Ps. aeruginosa; read-out: minimum inhibitory concentration
# E. coli [17] = test: MIC against various organisms (Table I); type: cell-based; details: Escherichia coli, read-out: minimum inhibitory concentration
# S. aureus Smith [18] = test: MIC against various organisms (Table I); type: cell-based; details: Staphylococcus aureus, read-out: minimum inhibitory concentration
# S. aureus [19] = test: MIC against various organisms (Table I); type: cell-based; details: Staphylococcus aureus, third of three lines, read-out: minimum inhibitory concentration
# E. coli Juhl [20] = test: MIC against various organisms (Table I); type: cell-based; details: Escherichia coli, read-out: minimum inhibitory concentration
# Pr. mirabilis [21] = test: MIC against various organisms (Table I); type: cell-based; details: Proteus mirabilis, read-out: minimum inhibitory concentration
# Ser. marcescens [22] = test: MIC against various organisms (Table I); type: cell-based; details: Serratia marcescens, read-out: minimum inhibitory concentration
# Sal. enteritidis [23] = test: MIC against various organisms (Table I); type: cell-based; details: Salmonella enterica, read-out: minimum inhibitory concentration
# Pr. morganii [24] = test: MIC against various organisms (Table I); type: cell-based; details: Morganella morganii; Pr. morganii; read-out: minimum inhibitory concentration
# Str. pyogenes [25] = test: MIC against various organisms (Table I); type: cell-based; details: Streptococcus pyogenes; Str. pyogenes + 5% serum; read-out: minimum inhibitory concentration
# [26] = Oral absorption in man, BL-P1780 Study 101; details: in vivo, po
# Description: as §4
# Three formulations were each administered once orally to six (6) healthy adult male subjects in BL-P1780 Study 101 as follows:
# A. BL-P1780, 500 mg. (of amoxicillin-equivalent activity) as two 250 mg. buffered tablets.
# B. BL-P1780, 500 mg. (an amoxicillin-equivalent activity) as two 250 mg. buffered tablets with 3.5 g. sodium bicarbonate being taken five minutes prior to the adminstration of BL-P1780.
# C. Amoxicillin, 500 mg. as two 250 mg. capsules.
# 1. To investigate the human safety and tolerance of single 500 mg. doses of BL-P1780.
# 2. To determine the effect of intragastric buffering with sodium bicarbonate on the absorption of BL-P1780.
# 3. To compare amoxicillin plasma and saliva concentrations and urinary excretion between BL-P1780 and amoxicillin.
# in vivo = test: in vivo; parameters: species or system mice; details: mouse, po, 50 mg/kg
# [27] = Bioassay of amoxicillin from the ester; details: 20 mg. ester in 10 ml. of 50/50 acetone/pH 7.0 buffer
# [28] = K. pneumoniae (10^-4), first of two lines, read-out: MIC
# [29] = BX1633, S. aureus BX1633 (10^-3), read-out: MIC
# [30] = S. aureus Meth.-Res. (10^-3), 37° C., read-out: MIC
# [31] = second of three lines, read-out: MIC
# [32] = third of three lines, read-out: MIC
structure (smiles),measurement,setting,value
CC1(C)S[C@@H]2[C@H](NC(=O)[C@H](N)c3ccccc3)C(=O)N2[C@H]1C(=O)O [Sodium Ampicillin],MIC,E. coli Juhl [1],2 µg/mL
same,MIC,K. pneumoniae [2],125 µg/mL
same,MIC,K. pneumoniae [2]; [28],0.5 µg/mL
same,MIC,Ps. aeruginosa [3],> 125 µg/mL
same,MIC,S. aureus BX1633 [4]; BX1633,> 125 µg/mL
same,MIC,S. aureus BX1633 [4]; [29],32 µg/mL
same,MIC,S. aureus [5],0.13 µg/mL
same,MIC,Pr. mirabilis [6],0.25 µg/mL
same,MIC,Pr. morganii [7],> 125 µg/mL
same,MIC,S. aureus Meth.-Res.,> 125 µg/mL
same,MIC,S. aureus Meth.-Res.; [30],32 µg/mL
same,MIC,Sal. enteritidis [8],0.13 µg/mL
same,MIC,Ent. cloacae; first of three lines,> 125 µg/mL
same,MIC,Ent. cloacae; [31],32 µg/mL
same,MIC,Ent. cloacae; [32],63 µg/mL
same,MIC,S. aureus Smith [9],0.06 µg/mL
same,MIC,Ser. marcescens [10],32 µg/mL
same,MIC,E. coli [11],16 µg/mL
same,MIC,Str. pyogenes [12],0.008 µg/mL
same,MIC,Str. pneumoniae,0.016 µg/mL
"COCOC(=O)[C@@H]1N2C(=O)[C@@H](N3C(=O)[C@@H](c4ccc(O)cc4)NC3(C)C)[C@H]2SC1(C)C [Example 8, methoxymethyl 6-[D-(-)-2,2-dimethyl-4-(4-hydroxyphenyl)-5-oxo-1-imidazolyl]-penicillanate]",MIC,D. pneumoniae,0.004 µg/mL
same,"tissue distribution of amoxicillin from BL-P1780 over that of ampicillin, amoxicillin or ampicillin from sarpicillin",[13],markedly improved tissue distribution
same,hydrolysis of the ester,[13]; po,hydrolyze eventually to their parent penicillins
same,MIC,K. pneumoniae [14]; first of two lines,0.16 µg/mL
same,MIC,K. pneumoniae [14]; second of two lines,> 125 µg/mL
same,MIC,"S. aureus BX1633 [15]; BX1633, S. aureus BX1633, first of two lines",125 µg/mL
same,MIC,"S. aureus BX1633 [15]; BX1633, S. aureus BX1633, second of two lines",> 125 µg/mL
same,MIC,Ps. aeruginosa [16],> 125 µg/mL
same,MIC,E. coli Juhl [1],1 µg/mL
same,MIC,K. pneumoniae [2]; [28],0.13 µg/mL
same,MIC,"K. pneumoniae [2]; K. pneumoniae (10^-4), second of two lines, read-out: MIC",> 125 µg/mL
same,MIC,"Ps. aeruginosa [3]; Ps. aeruginosa (10^-4), read-out: MIC",> 125 µg/mL
same,MIC,"S. aureus BX1633 [4]; BX1633, S. aureus BX1633 (10^-2), read-out: MIC",> 125 µg/mL
same,MIC,S. aureus BX1633 [4]; [29],16 µg/mL
same,MIC,Pr. mirabilis [6],0.25 µg/mL
same,MIC,"Pr. morganii [7]; Pr. morganii (10^-4), read-out: MIC",> 125 µg/mL
same,MIC,"S. aureus Meth.-Res.; S. aureus Meth.-Res. (10^-3), 28° C., read-out: MIC",63 µg/mL
same,MIC,S. aureus Meth.-Res.; [30],125 µg/mL
same,MIC,Sal. enteritidis [8],1 µg/mL
same,MIC,"Ent. cloacae; first of three lines, read-out: MIC",125 µg/mL
same,MIC,Ent. cloacae; [31],125 µg/mL
same,MIC,Ent. cloacae; [32],63 µg/mL
same,MIC,S. aureus Smith [9],0.13 µg/mL
same,MIC,Ser. marcescens [10],> 125 µg/mL
same,MIC,E. coli [11],32 µg/mL
same,MIC,E. coli [17],32 µg/mL
same,MIC,S. aureus Smith [18]; S. aureus Smith + 50% serum,0.06 µg/mL
same,MIC,S. aureus Smith [18]; S. aureus Smith,0.06 µg/mL
same,MIC,Str. pyogenes [12],0.008 µg/mL
same,MIC,Str. pneumoniae,0.008 µg/mL
same,MIC,S. aureus [19],> 125 µg/mL
same,MIC,E. coli Juhl [20],1 µg/mL
same,MIC,Pr. mirabilis [21],0.16 µg/mL
same,MIC,Ser. marcescens [22],32 µg/mL
same,MIC,Sal. enteritidis [23],0.13 µg/mL
same,MIC,Pr. morganii [24],32 µg/mL
same,MIC,Str. pyogenes [25],0.004 µg/mL
same,need of intragastric buffering for bioavailability or tissue distribution,[26],not necessary
same,concentration at 0.5 h,in vivo,4800 ng/mL
same,concentration at 1 h,in vivo,3500 ng/mL
same,concentration at 2 h,in vivo,1700 ng/mL
same,concentration at 3.5 h,in vivo,700 ng/mL
"CC1(C)S[C@@H]2[C@H](N3C(=O)[C@@H](c4ccccc4)NC3(C)C)C(=O)N2[C@H]1C(=O)O [Compound 3, D-6-(2,2-dimethyl-5-oxo-4-phenyl-1-imidazolidinyl)penicillanic acid]",concentration at 0.5 h,in vivo,2000 ng/mL
same,concentration at 2 h,in vivo,1100 ng/mL
same,concentration at 3.5 h,in vivo,500 ng/mL
"COCOC(=O)[C@@H]1N2C(=O)[C@@H](NC(=O)[C@H](N)c3ccc(O)cc3)[C@H]2SC1(C)C [Example 5, methoxymethyl ester of amoxicillin]",bioassay of amoxicillin,[27],1968 µg/mL
same,"bioassay of amoxicillin, percent of theory",[27],about 110 % of theory
